Assay results published in patent US10308605B2, “Proton pump inhibitors” (Takeda Pharmaceutical Company Limited, priority 2004, dated 2019).
Counter-ions that a name gives are not always drawn.

Each compound was assayed against proton, potassium-adenosine triphosphatase (H^+,K^+-ATPase) (Sus scrofa (Pig), UniProt P19156) (assay: Proton potassium-adenosine triphosphatase (H+,K+-ATPase) inhibitory activity test). Conditions: swine gastric mucous membrane microsomal fraction, pH 6.5, 37° C.; read-out: H^+/K^+-ATPase inhibitory activity (IC50).
Type: biochemical
Procedure: Proton Potassium-adenosine Triphosphatase (H^+,K^+-ATPase) Inhibitory Activity Test
According to the method [Biochem. Biophys. Acta., 728, 31 (1983)] of Wallmark et al., a gastric mucous membrane microsomal fraction was prepared from the stomach of swine. First, the stomach was removed, washed with tap water, immersed in 3 mol/L brine, and the surface of the mucous membrane was wiped with a paper towel. The gastric mucous membrane was detached, chopped, and homogenized in a 0.25 mol/L saccharose solution (pH 6.8) containing 1 mmol/L EDTA and 10 mmol/L tris-hydrochloric acid using polytron (Kinematica). The obtained homogenate was centrifuged at 20,000×g for 30 min and the supernatant was centrifuged at 100,000×g for 90 min. The precipitate was suspended in 0.25 mol/L saccharose solution, superimposed on a 0.25 mol/L saccharose solution containing 7.5% Ficoll, and centrifuged at 100,000×g for 5 hr. The fraction containing the interface between the both layers was recovered, and centrifugally washed with 0.25 mol/L saccharose solution.
The obtained microsomal fraction was used as a proton, potassium-adenosine triphosphatase standard product.
To 40 μL of a 50 mmol/L HEPES-tris buffer (5 mmol/L magnesium chloride, 10 mmol/L potassium chloride, 10 μmol/L valinomycin, pH=6.5) containing 2.5 μg/mL (based on the protein concentration) of the enzyme standard product was added a test compound (5 μL) dissolved in a 10% aqueous dimethyl sulfoxide solution, and the mixture was incubated at 37° C. for 30 min. The enzyme reaction was started by adding 5 μL of a 2 mmol/L adenosine triphosphate tris salt solution (50 mmol/L HEPES-tris buffer (5 mmol/L magnesium chloride, pH 6.5)). The enzyme reaction was carried out at 37° C. for 20 min, and 15 μL of a malachite green solution (0.12% malachite green solution in sulfuric acid (2.5 mol/L), 7.5% ammonium molybdate and 11% Tween 20 were mixed at a ratio of 100:25:2) was added to quench the reaction. After allowing to stand at room temperature for 15 min, the resulting reaction product of inorganic phosphorus with malachite green was colorimetrically determined at a wavelength of 610 nm. In addition, the amount of the inorganic phosphoric acid in the reaction solution free of potassium chloride was measured in the same manner, which was subtracted from the inorganic phosphoric acid amount in the presence of potassium chloride to determine the proton, potassium-adenosine triphosphatase activity. The inhibitory rate (%) was determined from the activity value of the control and the activity values of various concentrations of the test compound, and the 50% inhibitory concentration (IC50) of the proton, potassium-adenosine triphosphatase was determined.

Chain of proton, potassium-adenosine triphosphatase (H^+,K^+-ATPase) (P19156 2-1034): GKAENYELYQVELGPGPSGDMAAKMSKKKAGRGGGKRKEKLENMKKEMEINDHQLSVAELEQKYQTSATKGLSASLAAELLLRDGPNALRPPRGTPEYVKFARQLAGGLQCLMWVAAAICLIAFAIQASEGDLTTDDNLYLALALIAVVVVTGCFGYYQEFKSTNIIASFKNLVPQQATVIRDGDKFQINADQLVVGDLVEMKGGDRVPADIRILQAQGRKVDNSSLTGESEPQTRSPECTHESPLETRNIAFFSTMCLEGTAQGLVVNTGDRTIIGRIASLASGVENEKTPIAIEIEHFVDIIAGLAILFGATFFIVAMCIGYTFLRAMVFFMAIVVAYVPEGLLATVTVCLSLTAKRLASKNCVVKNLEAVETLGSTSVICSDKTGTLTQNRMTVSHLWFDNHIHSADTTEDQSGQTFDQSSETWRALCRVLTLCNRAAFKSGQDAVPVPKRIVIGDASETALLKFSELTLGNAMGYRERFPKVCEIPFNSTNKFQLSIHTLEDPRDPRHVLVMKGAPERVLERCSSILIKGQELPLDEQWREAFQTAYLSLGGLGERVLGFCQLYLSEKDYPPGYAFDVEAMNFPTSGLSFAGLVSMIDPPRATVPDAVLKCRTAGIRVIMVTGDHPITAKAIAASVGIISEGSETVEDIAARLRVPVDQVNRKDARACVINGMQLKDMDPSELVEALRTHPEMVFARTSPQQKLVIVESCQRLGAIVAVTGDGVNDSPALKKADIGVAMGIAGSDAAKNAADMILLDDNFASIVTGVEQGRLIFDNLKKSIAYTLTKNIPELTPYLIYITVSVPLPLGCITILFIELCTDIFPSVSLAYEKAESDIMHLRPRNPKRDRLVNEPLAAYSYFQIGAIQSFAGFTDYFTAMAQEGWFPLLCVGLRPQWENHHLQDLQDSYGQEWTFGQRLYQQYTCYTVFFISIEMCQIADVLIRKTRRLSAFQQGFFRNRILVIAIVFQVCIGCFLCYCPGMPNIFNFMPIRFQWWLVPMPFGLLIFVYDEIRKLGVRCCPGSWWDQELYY
Chain of proton, potassium-adenosine triphosphatase (H^+,K^+-ATPase) (P18434 whole entry partner): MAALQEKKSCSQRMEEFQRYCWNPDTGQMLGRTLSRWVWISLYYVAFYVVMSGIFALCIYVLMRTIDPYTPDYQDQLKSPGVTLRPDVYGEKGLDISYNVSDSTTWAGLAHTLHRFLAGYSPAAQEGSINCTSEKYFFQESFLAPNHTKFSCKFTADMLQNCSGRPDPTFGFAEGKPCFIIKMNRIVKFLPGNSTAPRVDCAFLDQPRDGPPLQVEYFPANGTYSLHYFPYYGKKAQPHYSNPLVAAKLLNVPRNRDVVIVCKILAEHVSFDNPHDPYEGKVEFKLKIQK

| Structure (SMILES) | IC50 |
| --- | --- |
| CNCc1cc(-c2ccccc2)n(S(=O)(=O)c2cc3ccccc3s2)c1 [Example 152, 1-[1-(1-Benzothien-2-ylsulfonyl)-5-phenyl-1H-pyrrol-3-yl]-N-methylmethanamine hydrochloride] | 33 nM |
| CNCc1cc(-c2ccccc2)n(S(=O)(=O)c2ccsc2)c1 [Example 43, N-Methyl-1-[5-phenyl-1-(3-thienylsulfonyl)-1H-pyrrol-3-yl]methanamine hydrochloride] | 51 nM |
| CNCc1cc(-c2ccccc2)n(S(=O)(=O)c2cccc(S(C)(=O)=O)c2)c1 [Example 140, N-Methyl-1-(1-{[3-(methylsulfonyl)phenyl]sulfonyl}-5-phenyl-1H-pyrrol-3-yl)methanamine hydrochloride] | 78 nM |
| CNCc1cc(-c2ccsc2)n(S(=O)(=O)c2ccccc2)c1 [Example 30, N-methyl-1-[1-(phenylsulfonyl)-5-(3-thienyl)-1H-pyrrol-3-yl]methanamine hydrochloride] | 4.2 nM |

Other lines, results leading:

| IC50 | Structure (SMILES) |
| --- | --- |
| 36 nM | CNCc1cc(-c2ccccc2C)n(S(=O)(=O)c2cccnc2)c1 [Example 220, N-Methyl-1-[5-(2-methylphenyl)-1-(pyridin-3-ylsulfonyl)-1H-pyrrol-3-yl]methanamine dihydrochloride] |
| 9 nM | CNCc1cc(-c2ccccc2F)n(S(=O)(=O)c2ccccc2F)c1 [Example 165, 1-{5-(2-Fluorophenyl)-1-[(2-fluorophenyl)sulfonyl]-1H-pyrrol-3-yl}-N-methylmethanamine hydrochloride] |
| 86 nM | CNCc1cc(-c2ccccc2)n(S(=O)(=O)c2cccc(C(=O)NC)c2)c1 [Example 204, N-Methyl-3-({4-[(methylamino)methyl]-2-phenyl-1H-pyrrol-1-yl}sulfonyl)benzamide hydrochloride] |
| 62 nM | CNCc1cc(-c2ccccc2F)n(S(=O)(=O)c2cccc(S(C)(=O)=O)c2)c1 [Example 161, 1-[5-(2-Fluorophenyl)-1-{[3-(methylsulfonyl)phenyl]sulfonyl}-1H-pyrrol-3-yl]-N-methylmethanamine hydrochloride] |

Same assay, conditions: swine gastric mucous membrane microsomal fraction, pH 6.5, 37° C.; read-out: IC50

| IC50 | Structure (SMILES) |
| --- | --- |
| 91 nM | CNCc1cc(-c2cccc(C)c2)n(S(=O)(=O)c2ccc(C)cc2)c1 [Example 7, N-Methyl-1-{5-(3-methylphenyl)-1-[(4-methylphenyl)sulfonyl]-1H-pyrrol-3-yl}methanamine hydrochloride] |
| 51 nM | CNCc1cc(-c2ccccc2)n(S(=O)(=O)c2ccc(F)cc2C)c1 [Example 11, 1-{1-[(4-Fluoro-2-methylphenyl)sulfonyl]-5-phenyl-1H-pyrrol-3-yl}-N-methylmethanamine hydrochloride] |
| 710 nM | CN(C)Cc1cc(-c2ccccc2)n(S(=O)(=O)c2ccc(C(F)(F)F)cc2)c1 [Example 12, N,N-Dimethyl-1-(5-phenyl-1-{[4-(trifluoromethyl)phenyl]sulfonyl}-1H-pyrrol-3-yl)methanamine hydrochloride] |
